What all share (type): in vivo
Data set [1] has as its system Viola tricolor (VIOTR). As to the kind of experiment: Pre-emergence herbicidal action against VIOTR. The note with it: 320 g/ha, Viola tricolor. Put shortly: (§1)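 Dosages of 320 g/ha or less; pre-emergence; WP or EC in aqueous spray, 0.5% additive, 600 l/ha; greenhouse; visual % effect after ~3 wk relative to control pots.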
Data set [2] deals with Amaranthus retroflexus (AMARE). As to the kind of experiment: Post-emergence herbicidal action against AMARE. In short, it runs like this:
(§2)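 Post-emergence greenhouse spray, one-leaf stage, 600 l/ha water plus 0.5% additive; WP or EC formulations; application rates 320 g/ha or lower. Visual % damage vs untreated controls at ~3 weeks.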

Data set [3] has as its system Polygonum convolvulus (POLCO). As to the kind of experiment: Pre-emergence herbicidal action against POLCO. Put shortly: as §1
Data set [4] relates to Alopecurus myosuroides (ALOMY). Description: Post-emergence herbicidal action against ALOMY. The note with it: visual rating about 3 weeks after treatment vs untreated controls (100% = plants have died, 0% = like control plants). In short, it runs like this:
as §2

The subject of data set [5] is Matricaria inodora (MATIN). Description: Pre-emergence herbicidal action against MATIN. Particulars: dosage 320 g/ha. In short, it runs like this:
as §1

The subject of data set [6] is Verconica persica (VERPE). Description: Post-emergence herbicidal action against VERPE. Put shortly:
as §2

Data set [7] relates to Pharbitis purpurea (PHBPU). As to the kind of experiment: Pre-emergence herbicidal action against PHBPU. Particulars: dosage 320 g/ha. In short, it runs like this: as §1
Data set [8] relates to Echinochloa crus-galli (ECHCG). Description: Pre-emergence herbicidal action against ECHCG. Particulars: dosage 320 g/ha. In short, it runs like this:
as §1

Data set [9] relates to Lolium rigidum (LOLRI). As to the kind of experiment: Pre-emergence herbicidal action against LOLRI. The note with it: dosage 320 g/ha. Put shortly:
as §1

For data set [10], the system named is Matricaria inodora (MATIN). As to the kind of experiment: Post-emergence herbicidal action against MATIN. In short, it runs like this: as §2
Data set [11] has as its system Setaria viridis (SETVI). As to the kind of experiment: Pre-emergence herbicidal action against SETVI. The note with it: dosage 320 g/ha. Put shortly: as §1
Data set [12] deals with Amaranthus retroflexus (AMARE). As to the kind of experiment: Pre-emergence herbicidal action against AMARE. The note with it: visual scoring after about 3 weeks vs untreated controls. Put shortly:
as §1

Data set [13] has as its system Avena fatua (AVEFA). As to the kind of experiment: Pre-emergence herbicidal action against AVEFA. Particulars: 320 g/ha, visual scoring after about 3 weeks vs untreated controls. Put shortly:
as §1

The subject of data set [14] is Alopecurus myosuroides (ALOMY). Description: Pre-emergence herbicidal action against ALOMY. Particulars: scored visually after about 3 weeks, 100% = plants have died. Put shortly:
as §1

The subject of data set [15] is Zea mays (ZEAMX). Put shortly:
(§3)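 One-leaf-stage crops (2–3 wk post-sowing, sandy loam, greenhouse) sprayed on green parts; 0.5% additive, 600 l/ha water. Rated by eye ~3 wk later, % vs untreated; suffixes a/b/c mark different dosages.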

Another data set deals with Oryza sativa (ORYSA). The note with it: crop plant compatibility. In short, it runs like this:
as §3

Data set [16] relates to Zea mays (ZEAMX). Particulars: pre-emergence, 80 g/ha, crop plant compatibility, in comparison to untreated controls. The text has this: Seeds of monocotyledonous and dicotyledonous weed plants and crop plants are placed in plastic or organic planting pots and covered with soil. The compounds of the invention, formulated in the form of wettable powders (WP) or as emulsion concentrates (EC), are then applied to the surface of the covering soil as aqueous suspension or emulsion with addition of 0.5% additive at a water application rate equivalent to 600 l/ha. After the treatment, the pots are placed in a greenhouse and kept under good growth conditions for the trial plants. After about 3 weeks, the effect of the preparations is scored visually in comparison with untreated controls as percentages. For example, 100% activity=the plants have died, 0% activity=like control plants.
The observed effects on selected crop plants are reported here in comparison to the untreated controls (values in %). The appendices “a” “b” and “c” give differentiation by dosage used with otherwise the same crop plants tested.

Data set [17] has as its system Verconica persica (VERPE). Description: Pre-emergence herbicidal action against VERPE. The note with it: dosage 320 g/ha. Put shortly:
as §1

Data set [18] concerns Viola tricolor (VIOTR). As to the kind of experiment: Post-emergence herbicidal action against VIOTR. Put shortly:
as §2

For data set [19], the system named is Avena fatua (AVEFA). Description: Post-emergence herbicidal action against AVEFA. Particulars: 320 g/ha, visual rating about 3 weeks after treatment. Put shortly: as §2
The test system of data set [20] is Setaria viridis (SETVI). Description: Post-emergence herbicidal action against SETVI. In short, it runs like this:
as §2

Data set [21] concerns Lolium rigidum (LOLRI). As to the kind of experiment: Post-emergence herbicidal action against LOLRI. Particulars: dosage 320 g/ha. In short, it runs like this: as §2
Data set [22] has as its system Pharbitis purpurea (PHBPU). As to the kind of experiment: Post-emergence herbicidal action against PHBPU. The note with it: dosage 320 g/ha. In short, it runs like this: as §2
Data set [23] concerns Polygonum convolvulus (POLCO). As to the kind of experiment: Post-emergence herbicidal action against POLCO. Particulars: dosage 320 g/ha. Put shortly:
as §2

Data set [24] concerns Triticum aestivum (TRZAS). Particulars: crop plant compatibility, 80 g/ha, effect vs untreated controls. Put shortly:
as §3

For data set [25], the system named is Echinochloa crus-galli (ECHCG). As to the kind of experiment: Post-emergence herbicidal action against ECHCG. Particulars: dosage 320 g/ha. In short, it runs like this: as §2
[26] abbreviates: 80 g/ha, visual rating about 3 weeks after treatment vs untreated controls (100% = plants have died, 0% = like control plants).

Read-outs that look alike come from different tables or passages of the source.

For the compound `O=C(COc1nn(-c2ccccn2)c(-c2ccc(F)nc2)c1Br)OCC1CCCO1` (centres unmarked) [Example I-93], in the data set on Viola tricolor (VIOTR) [1], the “Pre-emergence action against VIOTR in %” value amounted to 100%. In addition, in data set [2] (setting [26]), the “Post-emergence action against AMARE in %” value is 80%. For the same compound, the “Pre-emergence action against POLCO in %” value in [3] (dosage 80 g/ha) and in data set [3] (dosage 320 g/ha) was 90% in each case. The “Post-emergence action against ALOMY in %” value in data set [4] (80 g/ha) came out at 100%. Further, the “Pre-emergence action against MATIN in %” value in data set [5] turned out to be 100%. For the same compound, the “Post-emergence action against VERPE in %” value in [6] (dosage 80 g/ha) amounted to 80%. In addition, the “Pre-emergence action against PHBPU in %” value in data set [7] was 80%. In data set [8], the “Pre-emergence action against ECHCG in %” value is on record as 100%. Further, the “Pre-emergence action against LOLRI in %” value with Lolium rigidum (LOLRI) [9] stood at 100%. In addition, the “Post-emergence action against MATIN in %” value in data set [10] (dosage 80 g/ha) was determined as 80%. Further, the “Pre-emergence action against SETVI in %” value with Setaria viridis (SETVI) [11] was determined as 100%. Also, the “Pre-emergence action against AMARE in %” value is on record as 90% in data set [12] (80 g/ha) and 100% in data set [12] (320 g/ha). For the same compound, the “Pre-emergence action against AVEFA in %” value in the data set with Avena fatua (AVEFA) [13] is given as 90%. For the same compound, the “Pre-emergence action against ALOMY” value was 90% in [14] (80 g/ha) and 100% in data set [14] (320 g/ha). The “Post-emergence action against ZEAMX in % (crop plant compatibility)” value in the data set with Zea mays (ZEAMX) [15] (20 g/ha, ZEAMX, effect in comparison to untreated controls) amounted to 20%. For the same compound, the “Post-emergence action against ORYSA in %” value in the data set on Oryza sativa (ORYSA) (20 g/ha, effect vs untreated controls) is given as 10%; with Oryza sativa (ORYSA) (80 g/ha, effect in comparison to untreated controls), 20%. Further, the “Pre-emergence action against ZEAMX in %” value with Zea mays (ZEAMX) [16] is listed as 0%. Moreover, the “Pre-emergence action against VERPE in %” value in data set [17] amounted to 100%.
Regarding `CCOC(=O)COc1nn(-c2ncccc2F)c(-c2ccc(F)nc2)c1F` [Example I-354], the “Post-emergence action against AMARE in %” value is 80% in data set [2] (setting [26]) and 80% in data set [2] (320 g/ha, visual rating about 3 weeks after treatment). For the same compound, the “Pre-emergence action against POLCO in %” value in data set [3] (dosage 320 g/ha) turned out to be 80%. Also, in data set [4] (320 g/ha), the “Post-emergence action against ALOMY in %” value is on record as 90%. Also, the “Pre-emergence action against MATIN in %” value in data set [5] is listed as 90%. For the same compound, the “Post-emergence action against VERPE in %” value in data set [6] (320 g/ha, VERPE) is reported as 90%. Besides, the “Post-emergence action against VIOTR in %” value in the data set on Viola tricolor (VIOTR) [18] (80 g/ha) and in the data set with Viola tricolor (VIOTR) [18] (320 g/ha) was 80% throughout. In addition, in the data set on Avena fatua (AVEFA) [19], the “Post-emergence action against AVEFA in %” value is listed as 80%. The “Post-emergence action against SETVI in %” value with Setaria viridis (SETVI) [20] (dosage 80 g/ha) and in the data set on Setaria viridis (SETVI) [20] (dosage 320 g/ha) was 80% in each case. The “Pre-emergence action against ECHCG in %” value in data set [8] worked out at 100%. Moreover, the “Post-emergence action against LOLRI in %” value with Lolium rigidum (LOLRI) [21] was 90%. The “Post-emergence action against MATIN in %” value in data set [10] (dosage 80 g/ha) and in data set [10] (dosage 320 g/ha) was 80% each time. In the data set with Setaria viridis (SETVI) [11], the “Pre-emergence action against SETVI in %” value amounted to 90%. Moreover, the “Post-emergence action against PHBPU in %” value in data set [22] was 90%. Besides, the “Pre-emergence action against AMARE in %” value in data set [12] (80 g/ha) is listed as 80%; in data set [12] (320 g/ha), 90%. Moreover, the “Post-emergence action against POLCO in %” value in [23] worked out at 80%. Moreover, in data set [14] (320 g/ha), the “Pre-emergence action against ALOMY” value stood at 80%. For the same compound, in data set [24], the “Post-emergence action against TRZAS in %” value is listed as 0%. For the same compound, the “Post-emergence action against ZEAMX in %” value in the data set with Zea mays (ZEAMX) [15] (crop plant compatibility, 80 g/ha, effect vs untreated controls) is 0%. In the data set with Zea mays (ZEAMX) [16], the “Pre-emergence action against ZEAMX in %” value is 0%. Further, in [25], the “Post-emergence action against ECHCG in %” value is 100%.

The record behind these values is patent publication US20240041042A1, “1-(PYRIDYL)-5-AZINYLPYRAZOLE DERIVATIVES, AND THEIR USE FOR CONTROL OF UNDESIRED PLANT GROWTH” (Bayer Aktiengesellschaft, priority 2020, published 2024).
